The values that follow come from US20250320207A1, “Ketal Protected Intermediate for Sonrotoclax and Preparation Method Thereof” (priority 2022, published 2025).

Molecules are shown by their SMILES.

How the values of the series were obtained:
The sample was tested by GC (carrier gas: N2) and HPLC (Column: Waters Xselect HSS T3 (150 mm*4.6 mm, 3.5 um) P/N: 186004786; mobile phase 0.05% TFA in water, ACN:MeOH=1:1, v/v; Flow: 1 ml/min; Temperature: 30° C.).

With `C1COC2(CC3(CCNCC3)C2)OC1.Cl` [1,5-dioxa-11-azadispiro[5.1.5.1]tetradecane hydrogen chloride], the “storage stability (result in words)” value is reported as “stable enough”. Besides, where the note is “stored at 2-8° C. for 3.5 months, double layered LDPE bag with desiccant inside heat-sealed aluminum foil bag, GC and HPLC”, the “Product, Impurity profile (RRT, Area %), RRT 1.00” value is 99.90 Area %.
